Test results: patent US12415926B2, “Small tunable fluorophores for the detection and imaging of biomolecules” (The University Court of the University of Edinburgh, priority 2019, dated 2025)

Legend:
[1] = Optical properties of SCOTfluors (absorbance, emission, extinction coefficient, quantum yield, solvatochromism); format: physicochemical
Procedure: All compounds were dissolved in different organic solvents, including toluene, chloroform, tetrahydrofuran, ethanol, DMSO and water (final concentrations: 10-50 μM). Fluorescence spectra were acquired on a spectrophotometer upon excitation at their maxima absorbance wavelengths.
The optical properties of SCOTfluor-80, 79, 78, 76 and 81 were compared with the properties of the original NBD.

HeLa cells [2] = test: TIRF single-particle tracking of intracellular diffusion; format: cell-based, human; settings: DMOG-treated (10 μM) vs untreated, 100 μM
Procedure: (§1) B) Fluorescence emission of live cells after incubation with compound SCOTfluor-84 (100 μM) at different oxygen tensions (normoxia: blue; hypoxia: red) and in normoxic cells after competition with lactic acid (no lactate: red; 5 mM lactate: blue). Values as means and s.e.m as error bars. C) Time-lapse TIRF tracking of fluorescent particles in untreated (top) and DMOG-treated (10 μM, bottom) HeLa cells after incubation with compound SCOTfluor-84 (100 μM). Scale bars: 1 μm. D) Histograms of the diffusion coefficients of fluorescent particles in normoxic (blue) and hypoxic (red) cells. Dotted lines delineate fast and slow diffusion species. Mean diffusion coefficients (D) were determined after averaging the tracks of multiple particles for each condition (n=1,009 for untreated; n=2,906 for DMOG-treated).
Imaging was performed using a home-built, bespoke single-molecule total internal reflection fluorescence (TIRF) microscope. […] Fluorescence collected by the same objective was separated from the returning TIR beam by a dichroic mirror DI02-R514 (Semrock) for 515 nm and was passed through appropriate filters [515 nm: BLP01-561R, FF01-607/36 (Semrock)]. Fluorescence was then passed through a 2.5× beam expander and recorded on an EMCCD camera (Delta Evolve 512, Photometrics) operating in frame transfer mode (EMGain=11.5 e^−/ADU and 250 ADU/photon). […]

Neutrophils = test: Uptake of lactic acid analogue in live cells by flow cytometry (hypoxia/normoxia, lactate competition); format: cell-based, human
Procedure: as §1
Ex vivo experiments with fresh human peripheral blood from healthy donors were approved by the Accredited Medical Regional Ethics Committee (AMREC, reference number 15-HV-013). Peripheral blood polymorphonuclear cells from healthy volunteers were isolated as previously described. Briefly, citrated blood (3.8%) was centrifuged at room temperature at 350 g for 20 min, platelet-rich plasma was removed and separation from erythrocytes was achieved by Dextran sedimentation and fractionation of leukocytes using isotonic Percoll gradient. […] Flow cytometry data were analyzed using FlowJo software. […]

HeLa cells [3] = test: Cytotoxicity assay in HeLa cells; settings: 100 μM and 75 μM (1% DMSO), 4 h at 37° C.
Procedure: Cell viabilities were normalized to incubation in cell culture media under the same experimental conditions. A solution of 40% DMSO in cell culture media was used as a known cytotoxic positive control. Values represented as means±s.e.m. (n=3).

Structure (SMILES): O=C(O)[C@H](O)CNc1ccc([N+](=O)[O-])c2n[se]nc12 [SCOTfluor-84, (R)-2-hydroxy-3-((7-nitrobenzo[c][1,2,5]selenadiazol-4-yl)amino)propanoic acid]
- emission [1]: ~605 nm
- mean diffusion coefficients of fluorescent particles, hypoxic vs normoxic cells (HeLa cells [2]): higher mean diffusion coefficients
- uptake in hypoxic vs normoxic cells (Neutrophils; hypoxic (1% O2) vs normoxic (20% O2), 100 μM): Increased uptake
- fluorescence staining under competition with excess lactic acid (Neutrophils; normoxic cells, 5 mM lactic acid): markedly reduced
- cytotoxicity (cell viability) (HeLa cells [3]): no significant cytotoxicity
